Measurements: patent US20250326732A1 (Pretzel Therapeutics, Inc., priority 2021, published 2025)

Target: POLRMT (Homo sapiens (Human), UniProt O00411)
Assay: homogeneous TR-FRET assay of mitochondrial transcription (inhibition of POLRMT)
Assay type: biochemical
Settings: 7.5 nM POLRMT, 15 nM TFB2M, 30 nM TFAM, 0.5 nM DNA template, 500 μM NTPs, 37° C. for 60 minutes
Protocol: The ability of some compounds of the present invention to inhibit POLRMT were determined in a homogeneous TR-FRET Assay using high-throughput screening in a 384-well plate format. […] Detection of the product is facilitated by hybridization of two DNA-oligonucleotide probes to specific and adjacent sequences within the RNA product sequence. Upon annealing of the probes, two fluorophores are coupled directly to an acceptor nucleotide probe (ATTO647, 5′), or introduced via a coupled streptavidin with a biotinylated donor nucleotide probe (Europium cryptate) that is brought into sufficient proximity to serve as a fluorescence-donor-acceptor pair. Thus, a FRET signal at 665 nm is generated upon excitation at 340 nm.
The DNA template is restriction linearized proximal to the promotor 3′-end (pUC-LSP). […] No nucleotide triphosphate mix is added to negative control samples. Microplates with compounds to be tested in the assay are prepared from 10 mM compound stocks in 100% DMSO, equal amounts of DMSO without any compound are added to positive control and negative control samples.
During the incubation, a mix of the detection reagents is prepared in a buffer such that the enzymatic reaction is terminated due to chelating of Mg-ions and increased ionic strength, containing 50 mM Tris-HCl (pH 7.5), 700 mM NaCl, 20 mM EDTA, and 0.01% (w/v) Tween-20. Europium-streptavidin is pre-incubated with a 200-fold molar excess of a random sequence oligonucleotide to block unspecific binding of oligo, for two hours at ambient temperature in the dark. Afterwards, the blocked Europium-streptavidin is kept on ice until use.
At the end of the enzymatic reaction time, 5 μL detection oligo mix in the detection buffer is added, and assay plates are mixed and kept at ambient temperature for one hour, protected from light. The concentration of the Acceptor nucleotide oligo (e.g., ATTO647N-5′-[…]-3′) and Donor nucleotide oligo (e.g., bio-5′-[…](-bio)[…]-bio-3′) in each assay well is 1 nM, and 3 nM, respectively.
After incubation with oligo mix, 5 μL of pre-blocked Europium-streptavidin reagent is dispensed to each assay well, assay plates are again mixed and kept at ambient temperature for one hour, protected from light.
The generated signal is measured with BMG Pherastar microtiter plate reader with a TRF light unit, using excitation at 340 nm, an integration time of 200 μs, and a delay time of 100 μs, before detection at 620 nm and 665 nm. The ratio of donor- and acceptor-fluorescence is used as a measure of the generated transcript product (i.e. enzymatic activity).

POLRMT, sequence (O00411 42-1230): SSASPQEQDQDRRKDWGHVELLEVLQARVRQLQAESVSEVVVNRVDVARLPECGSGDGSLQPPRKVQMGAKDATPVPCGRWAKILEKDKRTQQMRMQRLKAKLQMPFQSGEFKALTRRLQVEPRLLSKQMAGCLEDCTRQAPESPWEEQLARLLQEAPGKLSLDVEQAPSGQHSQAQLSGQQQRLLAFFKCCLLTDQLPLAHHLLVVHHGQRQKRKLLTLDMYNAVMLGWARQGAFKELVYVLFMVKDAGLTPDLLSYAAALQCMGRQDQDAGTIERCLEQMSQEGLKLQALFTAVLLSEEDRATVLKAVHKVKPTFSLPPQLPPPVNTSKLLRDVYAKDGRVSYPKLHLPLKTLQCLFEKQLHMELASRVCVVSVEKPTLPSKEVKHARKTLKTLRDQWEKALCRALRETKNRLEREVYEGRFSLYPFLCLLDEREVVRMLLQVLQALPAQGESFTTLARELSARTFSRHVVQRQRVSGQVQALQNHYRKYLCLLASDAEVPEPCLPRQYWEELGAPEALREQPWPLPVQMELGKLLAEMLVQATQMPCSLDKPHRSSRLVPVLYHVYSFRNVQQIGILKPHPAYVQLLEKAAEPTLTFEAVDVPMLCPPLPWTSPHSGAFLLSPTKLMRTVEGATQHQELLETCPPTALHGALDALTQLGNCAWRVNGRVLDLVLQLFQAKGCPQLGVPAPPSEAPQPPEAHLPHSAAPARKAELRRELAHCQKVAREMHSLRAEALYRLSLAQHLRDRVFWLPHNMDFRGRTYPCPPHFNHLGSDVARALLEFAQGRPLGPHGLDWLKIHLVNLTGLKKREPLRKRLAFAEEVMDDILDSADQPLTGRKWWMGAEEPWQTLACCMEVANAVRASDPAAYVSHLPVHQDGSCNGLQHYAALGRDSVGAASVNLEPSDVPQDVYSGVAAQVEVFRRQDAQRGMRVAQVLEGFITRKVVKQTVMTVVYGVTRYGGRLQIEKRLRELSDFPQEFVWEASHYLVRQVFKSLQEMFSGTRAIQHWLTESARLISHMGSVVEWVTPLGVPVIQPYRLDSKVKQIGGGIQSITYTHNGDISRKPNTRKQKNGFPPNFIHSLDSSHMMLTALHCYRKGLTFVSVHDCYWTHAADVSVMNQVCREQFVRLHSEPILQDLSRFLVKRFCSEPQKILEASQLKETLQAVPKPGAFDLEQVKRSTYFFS

Compound	IC50 [nM]
C[C@@H](Nc1ccc2c(-c3ccc(F)cc3Cl)cc(=O)oc2c1)C(=O)N(C)C [Example 28, (R)-2-((4-(2-chloro-4-fluorophenyl)-2-oxo-2H-chromen-7-yl)amino)-N,N-dimethylpropanamide]	800
COCC1CN(C(=O)c2ccc3c(-c4ccccc4C)cc(=O)oc3c2)C1 [Example 115, 7-(3-(methoxymethyl)azetidine-1-carbonyl)-4-(o-tolyl)-2H-chromen-2-one]	18000
CN(CC(=O)O)c1ccc2c(-c3ccc(F)cc3Cl)cc(=O)oc2c1 [Example 105, N-(4-(2-chloro-4-fluorophenyl)-2-oxo-2H-chromen-7-yl)-N-methylglycine]	500
CNC(=O)[C@@H]1C[C@H]1c1ccc2c(-c3ccccc3C)cc(=O)oc2c1 (relative stereo) [Example 232, (trans)-N-methyl-2-(2-oxo-4-(o-tolyl)-2H-chromen-7-yl)cyclopropane-1-carboxamide]	2000
CCOC(=O)/C(C)=C/c1ccc2c(-c3ccccc3C)cc(=O)oc2c1 [Example 50, ethyl (E)-2-methyl-3-(2-oxo-4-(o-tolyl)-2H-chromen-7-yl)acrylate]	2000
Cc1ccccc1-c1cc(=O)oc2cc(C(=O)N(C)C3CCCOC3)ccc12 (stereo not drawn) [Example 117, N-methyl-2-oxo-N-(tetrahydro-2H-pyran-3-yl)-4-(o-tolyl)-2H-chromene-7-carboxamide]	65000
3-methoxy-2-((2-oxo-4-phenyl-2H-chromen-7-yl)amino)propanamide [Example 198]	2000
COC[C@@H](C(=O)N1CCC[C@H](C(=O)O)C1)N(C)c1ccc2c(-c3ccccc3C)cc(=O)oc2c1 (single isomer, unassigned) [Example 121]	300
COCC(Cc1ccc2c(-c3ccccc3C)cc(=O)oc2c1)C(N)=O (single isomer, unassigned) [Example 207, 3-methoxy-2-((2-oxo-4-(o-tolyl)-2H-chromen-7-yl)methyl)propanamide]	17000
Cc1ccccc1-c1cc(=O)oc2cc(N(C)Cc3ccc(=O)[nH]c3)ccc12 [Example 209, 5-((methyl(2-oxo-4-(o-tolyl)-2H-chromen-7-yl)amino)methyl)pyridin-2 (1H)-one]	300
O=C(O)CCNc1ccc2c(-c3ccccc3Cl)cc(=O)oc2c1 [Example 131, 3-((4-(2-chlorophenyl)-2-oxo-2H-chromen-7-yl)amino)propanoic acid]	8000
CCNC(=O)[C@@H](C)Nc1ccc2c(-c3ccc(F)cc3Cl)cc(=O)oc2c1 [Example 48, (R)-2-((4-(2-chloro-4-fluorophenyl)-2-oxo-2H-chromen-7-yl)amino)-N-ethylpropanamide]	3000
Cc1ccccc1-c1cc(=O)oc2cc(N(C)CC(C)C(=O)O)ccc12 (single isomer, unassigned) [Example 154-2]	500
CNCc1ccc2c(-c3ccc(F)cc3Cl)cc(=O)oc2c1 [Example 04, 4-(2-chloro-4-fluorophenyl)-7-((methylamino)methyl)-2H-chromen-2-one]	> 100000
Cc1ccccc1-c1cc(=O)oc2cc([C@H]3C[C@H]3C(=O)N(C)C)ccc12 (relative stereo) [Example 234, (cis)-N,N-dimethyl-2-(2-oxo-4-(o-tolyl)-2H-chromen-7-yl)cyclopropane-1-carboxamide]	3000
Cc1ccccc1-c1cc(=O)oc2cc(CN(C)C(=O)N3CCC[C@@H](C(=O)O)C3)ccc12 [Example 222, (R)-1-(methyl((2-oxo-4-(o-tolyl)-2H-chromen-7-yl)methyl)carbamoyl)piperidine-3-carboxylic acid]	2000
CC(=O)N(C)CC1CCN(C(=O)c2ccc3c(-c4ccccc4C)cc(=O)oc3c2)C1 (stereo not drawn) [Example 205, N-methyl-N-((1-(2-oxo-4-(o-tolyl)-2H-chromene-7-carbonyl)pyrrolidin-3-yl)methyl)acetamide]	> 100000
COC(=O)/C=C(\C)c1ccc2c(-c3ccccc3C)cc(=O)oc2c1 [Example 57, methyl (E)-3-(2-oxo-4-(o-tolyl)-2H-chromen-7-yl)but-2-enoate]	300
